What was measured:
[1] = Parallel artificial membrane permeability assay (PAMPA); type: in vitro ADME
Protocol: Compound Papp values were determined by normalizing the experimental compound absorbance to the compounds’ absorbances at equilibrium, membrane porosity, buffer volume, and time (s). Two or more replicate assays were obtained on separate days for each pH.

[2] = system: HBV replication (HBV plus-polarity DNA strand); assay: HBV replication inhibition, strand preferential qPCR in hepDES19 cells; type: cell-based, hepatitis B virus; conditions: for EC50: 72 h exposure, HBV plus-polarity strand suppression, highest concentration tested 100 µM, mean ± SD, read-out: HepDES19 EC50
Protocol: HBV replication inhibition was measured in hepDES19 cells following 72 h compound exposure without compound replenishment. EC50 values were determined by HBV plus-polarity strand suppression using a strand preferential qPCR assay, as described previously ([28]). Three or more replicate values were obtained on different days.

HepDES19 cells = conditions: read-out: HepDES19 CC50; 72 h, MTS; highest concentration tested 100 µM; mean ± SD
Protocol: HepDES19 cells were plated on 96-well tissue culture-treated plates (Greiner) at 1.0 × 10^4 cells per well and incubated for 48 h. Cells were treated with titrated concentrations of compound or 1% DMSO vehicle for 72 h, and cellular viability was measured by 3-(4,5-dimethylthiazol-2-yl)−5-(3-carboxymethoxyphenyl)−2-(4-sulfophenyl)−2H-tetrazolium (MTS) assays, as described previously ([20]). […] Three or more replicate assays were done on different days.

CYP2D6 = target: T1, CYP2D6 (Homo sapiens, UniProt P10635); assay: Cytochrome P450 inhibition, Vivid 2D6 EOMCC Blue kit; type: in vitro ADME; conditions: dose-response 50 µM to 3 nM; mean ± SD
T1 construct: purchased Thermo Fisher Vivid 2D6 EOMCC Blue
Protocol: (§1) Compound inhibition of Cytochrome P (CYP) 3A4, 2C9, and 2D6 was determined using Vivid CYP450 screening kits (Thermo Fisher) according to the manufacturer’s instructions, as described previously ([27]). The kits employed were: Vivid 3A4 DBOMF Green, 2C9 BOMF Green, and 2D6 EOMCC Blue. Reactions were initiated by addition of the fluorophore-conjugated substrates with Vivid NADP^+ and were conducted at 37°C using either a Biotek Synergy HTX multi-mode plate reader with 485/20 nm excitation and 520/20 nm emission filters (green-fluorescent substrate), or a Tecan Spark plate reader with monochromator settings at 415/20 nm excitation and 460/20 nm emission (blue-fluorescent substrate) defined by the Center Wavelength/band-pass values. Substrate cleavage was detected every 60 s.
(§2) Compounds were initially screened against each enzyme at 10 µM and maximum rates of fluorescence in RFU were calculated using the Biotek Gen5 v3.11 software. Percent inhibition of experimental compound reactions was normalized to the rate to DMSO vehicle reactions. Positive controls used were: CYP3A4—ketoconazole (Sigma Aldrich), CYP2C9—sulfaphenazole (Cayman Chemical), and CYP2D6—quinidine (Fisher Scientific). Dose-response curves were generated for compounds that inhibited an enzyme by ≥50% using titrated concentrations of compound (50 µM to 3 nM) or 1% DMSO. IC50 values were determined using the four-parameter log[inhibitor] versus response algorithm in GraphPad Prism. Qualitative screens and dose-response curves were each performed in triplicate on different days.

[3] = Solubility limit, turbidimetric assay; type: physicochemical; conditions: upper limit 200 µM
Protocol: Solubility limits were determined by a turbidimetric assay, as described ([27]), with the solubility limit being defined as the compound concentration where light scattering began to rise. Two or more replicate assays were performed for each compound at each pH on different days.

Microsome stability = type: in vitro ADME, human; conditions: human, microsomes
Protocol: Human liver microsomes (gender pooled, 50 individuals) were purchased from BioIVT and stored at −80°C until use. […] Reactions were initiated by addition of 1.2 mM NADPH. […] Microsomal proteins were pelleted at 4,000 × g and the supernatant was analyzed via LCMS/MS. […] The ln percent remaining values were plotted against time, the negative slope was taken (k), and compound half-life (t1/2) was determined using ln2/k. Intrinsic clearance (Clint [µL/min/mg]) was calculated by (V × ln2)/t1/2, where V is the incubation volume (µL) divided by the protein concentration in the reaction (mg) ([31]).

CYP3A4 = target: T2, CYP3A4 (Homo sapiens, UniProt P08684); assay: Cytochrome P450 inhibition, Vivid 3A4 DBOMF Green kit; type: in vitro ADME; conditions: 10 µM compound
T2 construct: purchased Thermo Fisher Vivid 3A4 DBOMF Green
Protocol: as §1
as §2, with “Dose-response curves were generated for compounds that inhibited an enzyme by ≥50% using titrated concentrations of compound (50 µM to 3 nM) or 1% DMSO.” left out, “Qualitative screens and dose-response curves were each performed in triplicate on different days.” left out

plasma proteins = assay: Plasma protein binding, rapid equilibrium dialysis; type: in vitro ADME, bovine; conditions: 10 µM compound, DMEM-F12 with 10% FBS (0.25 mg/mL BSA), 4 h, 37°C
Protocol: Plasma protein binding was performed using the Pierce rapid equilibrium dialysis device (Thermo Fisher) per the manufacturer’s instructions, as described ([27]). Briefly, the sample wells contained DMEM-F12 supplemented with 10% FBS spiked with 10 µM compound, and the buffer wells contained phosphate-buffered saline (PBS). The plate was incubated for 4 h at 37°C with shaking, after which 50 µL was retrieved from the buffer and sample wells and added to ice-cold acetonitrile and the internal standard described above. Samples were matrix-matched with PBS supplemented with 10% FBS or PBS alone, respectively, and centrifuged at 4,000 × g for 5 min to pellet plasma proteins. The supernatants were analyzed by LCMS/MS and percent compound bound was determined, as described previously ([27]).

[4] = pH 5 (fed simulated intestinal fluid)
[5] = pH 6.5 (fasted simulated intestinal fluid)

T1 sequence (P10635 whole entry): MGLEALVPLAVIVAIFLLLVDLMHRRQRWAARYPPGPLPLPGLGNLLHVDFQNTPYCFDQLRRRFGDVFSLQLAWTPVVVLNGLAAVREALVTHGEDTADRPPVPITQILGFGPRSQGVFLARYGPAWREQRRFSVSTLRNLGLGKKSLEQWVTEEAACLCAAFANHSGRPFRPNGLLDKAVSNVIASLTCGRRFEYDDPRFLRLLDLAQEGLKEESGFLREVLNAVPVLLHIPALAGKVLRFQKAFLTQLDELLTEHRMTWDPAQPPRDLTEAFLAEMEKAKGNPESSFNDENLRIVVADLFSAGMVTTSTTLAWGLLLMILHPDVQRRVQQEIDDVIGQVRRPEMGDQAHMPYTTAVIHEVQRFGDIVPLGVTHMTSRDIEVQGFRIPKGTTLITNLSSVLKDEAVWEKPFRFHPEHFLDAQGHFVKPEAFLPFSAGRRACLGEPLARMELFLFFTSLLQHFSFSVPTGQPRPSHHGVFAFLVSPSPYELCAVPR
T2 sequence (P08684 whole entry): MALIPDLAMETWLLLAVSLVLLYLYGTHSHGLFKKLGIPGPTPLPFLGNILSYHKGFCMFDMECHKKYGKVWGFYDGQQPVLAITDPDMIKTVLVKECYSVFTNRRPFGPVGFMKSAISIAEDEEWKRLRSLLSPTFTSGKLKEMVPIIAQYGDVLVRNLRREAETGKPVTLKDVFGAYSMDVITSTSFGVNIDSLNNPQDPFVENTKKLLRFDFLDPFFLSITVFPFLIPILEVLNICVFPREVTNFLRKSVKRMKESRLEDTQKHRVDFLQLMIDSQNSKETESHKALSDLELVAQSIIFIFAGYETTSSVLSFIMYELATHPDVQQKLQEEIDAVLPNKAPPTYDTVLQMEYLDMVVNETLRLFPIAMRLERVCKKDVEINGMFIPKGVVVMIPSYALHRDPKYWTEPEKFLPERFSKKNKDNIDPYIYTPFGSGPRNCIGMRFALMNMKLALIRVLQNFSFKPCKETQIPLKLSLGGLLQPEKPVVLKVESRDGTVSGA

CC(=NOCc1cccc(Br)c1)c1c(C)cc(=O)n(O)c1O [Compound 1621]
Avg Papp (PAMPA) ([1]; FeSSIF pH 5): 26.3 ×10⁻⁶ cm/s
Interpretation (PAMPA Papp) ([1]; FeSSIF pH 5): H (H: Papp > 1*10-6)
Papp 1 (PAMPA) ([1]; FeSSIF pH 5, replicate 1): 31.7 ×10⁻⁶ cm/s
Papp 2 (PAMPA) ([1]; FeSSIF pH 5, replicate 2): 20.9 ×10⁻⁶ cm/s
Avg Papp (PAMPA) ([1]; pH 7.4): 4.53 ×10⁻⁶ cm/s
Interpretation (PAMPA Papp) ([1]; pH 7.4): H (H: Papp > 1*10-6)
Papp 1 (PAMPA) ([1]; pH 7.4, replicate 1): 0.49 ×10⁻⁶ cm/s
Papp 2 (PAMPA) ([1]; pH 7.4, replicate 2): 4.47 ×10⁻⁶ cm/s
Papp 3 (PAMPA) ([1]; pH 7.4, replicate 3): 10.6 ×10⁻⁶ cm/s
Papp 4 (PAMPA) ([1]; pH 7.4, replicate 4): 0.488 ×10⁻⁶ cm/s
Papp 5 (PAMPA) ([1]; pH 7.4, replicate 5): 6.7 ×10⁻⁶ cm/s
Papp 6 (PAMPA) ([1]; pH 7.4, replicate 6): 4.44 ×10⁻⁶ cm/s
HepDES19 SI (CC50/EC50) [2]: 192
EC50 [2]: 0.52 ± 0.33 µM
CC50 (HepDES19 cells): 78.5 ± 32.4 µM
IC50 (CYP2D6): 19.5 µM
Average Sol (solubility limit) [3, 4]: > 200 µM
Sol 1 (solubility limit) ([3]; pH 5, replicate 1): > 200 µM
Sol 2 (solubility limit) ([3]; pH 5, replicate 2): > 200 µM
Average Sol (solubility limit) [3, 5]: > 200 µM
Sol 1 (solubility limit) ([3]; pH 6.5, replicate 1): > 200 µM
Sol 2 (solubility limit) ([3]; pH 6.5, replicate 2): > 200 µM
Average Sol (solubility limit) ([3]; pH 7.4 (DMEM-F12 with 10% FBS)): > 200 µM
Sol 1 (solubility limit) ([3]; pH 7.4, replicate 1): > 200 µM
Sol 2 (solubility limit) ([3]; pH 7.4, replicate 2): > 200 µM

CC(=NOCc1cccc(Cl)c1)c1c(C)cc(=O)n(O)c1O [Compound 1719]
Avg Papp (PAMPA) ([1]; FeSSIF pH 5): 72.6 ×10⁻⁶ cm/s
Interpretation (PAMPA Papp) ([1]; FeSSIF pH 5): H (H: Papp > 1*10-6)
Papp 1 (PAMPA) ([1]; FeSSIF pH 5, replicate 1): 48.6 ×10⁻⁶ cm/s
Papp 2 (PAMPA) ([1]; FeSSIF pH 5, replicate 2): 78.8 ×10⁻⁶ cm/s
Papp 3 (PAMPA) ([1]; FeSSIF pH 5, replicate 3): 90.3 ×10⁻⁶ cm/s
Avg Papp (PAMPA) ([1]; pH 7.4): 2.9 ×10⁻⁶ cm/s
Interpretation (PAMPA Papp) ([1]; pH 7.4): H (H: Papp > 1*10-6)
Papp 1 (PAMPA) ([1]; pH 7.4, replicate 1): 2.82 ×10⁻⁶ cm/s
Papp 2 (PAMPA) ([1]; pH 7.4, replicate 2): 2.99 ×10⁻⁶ cm/s
HepDES19 SI (CC50/EC50) [2]: 34.5
EC50 [2]: 1.35 ± 1.03 µM
CC50 (HepDES19 cells): 56.9 ± 31.1 µM
IC50 (CYP2D6): 11.2 ± 3.79 µM
Average Sol (solubility limit) [3, 4]: 150 µM
Sol 1 (solubility limit) ([3]; pH 5, replicate 1): 100 µM
Sol 2 (solubility limit) ([3]; pH 5, replicate 2): > 200 µM
Average Sol (solubility limit) [3, 5]: > 200 µM
Sol 1 (solubility limit) ([3]; pH 6.5, replicate 1): > 200 µM
Sol 2 (solubility limit) ([3]; pH 6.5, replicate 2): > 200 µM
Average Sol (solubility limit) ([3]; pH 7.4 (DMEM-F12 with 10% FBS)): > 200 µM
Sol 1 (solubility limit) ([3]; pH 7.4, replicate 1): > 200 µM
Sol 2 (solubility limit) ([3]; pH 7.4, replicate 2): > 200 µM

CC(=NOCc1ccc(OCc2ccc(C(C)(C)C)cc2)cc1)c1c(C)cc(=O)n(O)c1O [Compound 1808]
Clearance (intrinsic clearance, Clint) (Microsome stability): 10.1 µL/min/mg
Half-life (Microsome stability): >30 min
Interpretation (PAMPA Papp) ([1]; FeSSIF pH 5): H (H: Papp > 1*10-6)
Papp 1 (PAMPA) ([1]; FeSSIF pH 5, replicate 1): 32.2 ×10⁻⁶ cm/s
Papp 2 (PAMPA) ([1]; FeSSIF pH 5, replicate 2): 9.19 ×10⁻⁶ cm/s
Papp 3 (PAMPA) ([1]; FeSSIF pH 5, replicate 3): 81.4 ×10⁻⁶ cm/s
Papp 4 (PAMPA) ([1]; FeSSIF pH 5, replicate 4): 95.8 ×10⁻⁶ cm/s
Avg Papp (PAMPA) ([1]; pH 7.4): 2.97 ×10⁻⁶ cm/s
Interpretation (PAMPA Papp) ([1]; pH 7.4): H (H: Papp > 1*10-6)
Papp 1 (PAMPA) ([1]; pH 7.4, replicate 1): 3.7 ×10⁻⁶ cm/s
Papp 2 (PAMPA) ([1]; pH 7.4, replicate 2): 2.6 ×10⁻⁶ cm/s
Papp 3 (PAMPA) ([1]; pH 7.4, replicate 3): 2.6 ×10⁻⁶ cm/s
HepDES19 SI (CC50/EC50) [2]: 6.24
EC50 [2]: 6 ± 0.17 µM
CC50 (HepDES19 cells): 38.2 ± 10.2 µM
Average Sol (solubility limit) [3, 4]: > 200 µM
Sol 1 (solubility limit) ([3]; pH 5, replicate 1): > 200 µM
Sol 2 (solubility limit) ([3]; pH 5, replicate 2): > 200 µM
Average Sol (solubility limit) [3, 5]: > 200 µM
Sol 1 (solubility limit) ([3]; pH 6.5, replicate 1): > 200 µM
Sol 2 (solubility limit) ([3]; pH 6.5, replicate 2): > 200 µM
Average Sol (solubility limit) ([3]; pH 7.4 (DMEM-F12 with 10% FBS)): 100 µM
Sol 1 (solubility limit) ([3]; pH 7.4, replicate 1): 100 µM
Sol 2 (solubility limit) ([3]; pH 7.4, replicate 2): 100 µM
Percent inhibition of CYP3A4 (CYP3A4): ~ 42%

Nc1ccn([C@@H]2CS[C@H](CO)O2)c(=O)n1 [Lamivudine, lamivudine, reference compound]
Percent bound (plasma proteins): 9.70 ± 11.3%
Percent bound (plasma proteins; listed as lamivudine): 10%
